Results published in US5684020A, “Piperazine, piperidine and 1,2,5,6-tetrahydropyridine” (Adir et Compagnie, priority 1995, dated 1997).

Legend:
[1] = tested on: Verticalisation induced by apomorphine; assay: Verticalisation induced by apomorphine in the mouse; type: in vivo; settings: sc, 0.5 h, s.c., apomorphine 0.75 mg/kg s.c. 30 minutes later, read-out: ID50 (dose reducing by half the average verticalisation score)
Description: 1. Verticalisation induced by apomorphine (0.75 mg/kg, s.c.) in the mouse
This test, described by Protais et al (Psychopharmacologie, 1976, 50, 1-6) allows the evaluation of the dopaminergic antagonist activity of possible antipsychotic products. A mouse to which apomorphine has been administered and which has been placed in a cage comprising vertical bars, remains most of the time immobile at the top of the cage clinging by its 4 paws to the bars. That verticalisation behaviour is blocked if a dopaminergic antagonist product has been administered before the apomorphine.
Test: After the subcutaneous (s.c.) administration of the product or solvent (control group), the mouse is placed in a cylindrical barred cage (14 cm diam.×14 cm h) having vertical bars. Thirty minutes later, the animal receives the apomorphine dose (0.75 mg/kg, s.c.). […]
Statistical analysis: The effect of the product on verticalisation is evaluated by comparing the scores obtained for each group that has been administered a dose of product with those obtained for the control group (solvent) using a Mann and Whitney U test, with a probability p<0.05. […]

[2] = Induction of catalepsy in the rat; settings: in vivo, sc, 1 hour after injection, 50% of maximum 30 seconds
Excerpt: 3. Induction of catalepsy in the rat
The acute administration of "typical" antipsychotics to an animal induces catalepsy, that is to say the maintenance of the animal in an often abnormal posture which has been imposed upon it by the experimenter (Waldmeier, 1979). The evaluation of the cataleptogenic properties of a product in the rat thus makes it possible to know whether that product, administered to man, will or will not risk causing an extrapyramidal-type syndrome.
Test: The animals are placed in individual cages and food is withdrawn the day before the test but water taken as desired. The catalepsy test comprises placing each rear paw of the animal on the front paw of the same side and measuring the time (seconds) that the animal remains in that "crossed paws" position (maximum 30 seconds). Each animal is subjected to 3 successive tests (one every two minutes), the animal being removed from its cage and placed on the work surface. Those tests are carded out 1 hour after the subcutaneous injection or oral administration of the product or its solvent. The average value of 3 tests represents the duration of the catalepsy (seconds) for each animal. There are 5 or 6 rats per experimental group.
Statistical analysis: The effect of the product on the duration of the catalepsy is evaluated by an ANOVA, followed by a Dunnett's test, with the probability p<0.05. […]

[3] = tested on: aggressiveness in isolated mice; assay: Test of aggressiveness in isolated mice; type: in vivo, male CD mice; settings: Mus musculus, sc; 30 minutes before test; read-out: ID50 (dose reducing by half number or duration of attacks)
Excerpt: 2. Test of aggressiveness in isolated mice
This test allows the evaluation of the intraspecies anti-aggressive activity of a product in mice that have been kept in isolation for several months.
Animals: The test uses male CD mice (Charles River) weighing from 22 to 25 g when they arrive at the animal house. On their arrival, the animals are isolated in individual cages made of opaque black polycarbonate (23×14×13 cm) with a grill lid, and are housed for a prolonged period (approximately 6 months) in the experimentation room.
Selection of pairs of mice: The selection of aggressive pairs of mice that will be used chronically in the study commences after the animals have been isolated for one month. […]
Test: The test takes place once a week. […] The latent period (in seconds) of the first attack and the number and total duration (in seconds) of the attacks are recorded. […]
Statistical analysis: The effects of a product on aggressiveness are evaluated by comparing the number and the duration of the attacks by the pairs of mice that have received the product (treated groups) with those obtained with the pairs that have received the solvent (control group) by using a variance analysis (ANOVA) followed by a Dunnett's test, with the probability p<0.05. […]

[4] = tested on: dopamine turnover; assay: Dopamine turnover (DOPAC/dopamine ratio) in rat brain structures; type: in vivo, Male Wistar rats; settings: regions studied: frontal cortex, nucleus accumbens, olfactory tubercles, striatum
Description: by dopamine synthesis (turnover) studies in the following structures: frontal cortex (mesocortical pathway), nucleus accumbens and olfactory tubercle (mesolimbic pathway), striatum (nigrostriatal pathway). The functional dopaminergic antagonists cause an increase in the synthesis of dopamine in those structures.
Male Wistar rats (Iffa Credo, Illskirchen France) weighing 250 to 280 g are kept in a 12h/12h light/darkness cycle (light switched on at 7.30 a.m.). They have free access to water and food; the laboratory temperature is 21°±1° C. and the humidity is 60±5%.
Dopamine turnover: The effect of the products of the invention and the reference product on dopamine turnover is determined after subcutaneous injection. After a period of 30 minutes, the rats are decapitated and the brain is dissected in order to extract the striatum, the nucleus accumbens, the frontal cortex and the olfactory tubercles. The tissues are homogenised in 500 μl of HClO4 0.1M containing 0.5% Na2 S2 O5 and 0.5% EDTA Na2 and centrifuged at 15,000 g for 15 minutes at 4° C. The supernatants are diluted in the mobile phase and injected into an HPLC column (Hypersil ODS 5 μm, C18, 150×4.6mm, Thermo Separation Products, Les Ulis, France) thermostatically controlled at 25° C. […]

[5] = tested on: schizophrenia patients; settings: Davis et al., 1983; cited from earlier work

SMILES	ED50 [1]	ED50 at 1 h [2]	ED50 [3]	effect on dopaminergic transmission (in words) [4]	extrapyramidal symptoms (in words) [5]
c1ccc2c(c1)CC(CN1CCN(c3ccc4c(c3)OCCO4)CC1)C2 [Example 6, 4-(2,3-Dihydrobenzo-1,4-dioxin-6-yl)-1-(indan-2-ylmethyl)piperazine]	3.88 mg/kg	> 80 mg/kg	0.99 mg/kg	–	–
O=C(CCCN1CCC(O)(c2ccc(Cl)cc2)CC1)c1ccc(F)cc1 [Haloperidol]	–	0.146 mg/kg	–	significant effect on dopaminergic transmission in each of the regions studied	often brings about the appearance of undesirable extrapyramidal symptoms (EPS) of the Parkinson's type
CN(C)CCCN1c2ccccc2Sc2ccc(Cl)cc21 [chlorpromazine]	–	–	–	–	often brings about the appearance of undesirable extrapyramidal symptoms (EPS) of the Parkinson's type
CN1CCN(C2=Nc3cc(Cl)ccc3Nc3ccccc32)CC1 [clozapine]	–	–	–	–	cause few extrapyramidal symptoms
